According to patent US8076487B2, “Pyridone derivative and herbicide” (Kumiai Chemical Industry Co., Ltd., priority 2006, dated 2011):

What was measured:
Assay type in all cases: in vivo
[1] = system: barnyardgrass (Echinochloa crus-galli (L.) P. Beauv. var. crus-galli); assay: Test Example 2: herbicidal effect by soil application to upland field; conditions: soil surface spray, upland field soil, 1,000 g active ingredient per hectare, 21st day after application
Summary of the method: (§1)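 Seeds were sown in field soil, covered, and the soil surface sprayed with a water-diluted wettable powder at 1,000 g active ingredient per hectare in 1,000 L/ha. Plants grew in a greenhouse, and herbicidal effect was rated against a standard scale 21 days after application.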

[2] = system: slender amaranth (Amaranthus viridis L.); assay: as above; conditions: soil surface spray, upland field soil, 1,000 g active ingredient per hectare, 21st day after application
Summary of the method: as §1

[3] = system: velvetleaf (Abutilon theophrasti medicus); assay: as above; conditions: soil surface spray, upland field soil, 1,000 g active ingredient per hectare, 21st day after application
Summary of the method: as §1

[4] = system: green foxtail (Setaria viridis (L.) P. Beauv.); assay: as above; conditions: soil surface spray, upland field soil, 1,000 g active ingredient per hectare, 21st day after application
Summary of the method: as §1

[5] = system: heartshape false pickerelweed (Monochoria vaginalis (Burm.f.) C.Presl); assay: Test Example 1: herbicidal effect by soil application to paddy field; conditions: paddy field soil application; active ingredient 1,000 g per 1 hectare; wettable powder added dropwise to water surface the day after sowing; examined on the 21st day after application
Summary of the method: (§2)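 Under greenhouse conditions, seeds sown on puddled paddy soil in 100 cm2 pots under 3 cm of standing water received the test compound; injury was assessed with a standard scoring scheme three weeks (day 21) after treatment.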

[6] = system: early watergrass (Echinochloa oryzicola Vasing); assay: as above; conditions: paddy field soil application; active ingredient 1,000 g per 1 hectare; wettable powder added dropwise to water surface the day after sowing; examined on the 21st day after application
Summary of the method: as §2

[7] = system: Japanese bulrush (Scirpus juncoides Roxb.); assay: as above; conditions: paddy field soil application; active ingredient 1,000 g per 1 hectare; wettable powder added dropwise to water surface the day after sowing; examined on the 21st day after application
Summary of the method: as §2

[8] = system: barnyardgrass (Echinochloa crus-galli (L.) P. Beauv. var. crus-galli); assay: Test Example 3: herbicidal effect by application to upland field (foliage treatment); conditions: foliage treatment, 1,000 g active ingredient per 1 hectare, 14th day after application, greenhouse
Summary of the method: (§3)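 Foliage treatment, greenhouse: 2-week-old plants in field soil; wettable powder in water sprayed over the top at 1,000 g a.i./ha (1,000 L/ha); rating on day 14 post-application.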

[9] = system: slender amaranth (Amaranthus viridis L.); assay: as above; conditions: foliage treatment, 1,000 g active ingredient per 1 hectare, 14th day after application, greenhouse
Summary of the method: as §3

[10] = system: velvetleaf (Abutilon theophrasti medicus); assay: as above; conditions: foliage treatment, 1,000 g active ingredient per 1 hectare, 14th day after application, greenhouse
Summary of the method: as §3

[11] = system: green foxtail (Setaria viridis (L.) P. Beauv.); assay: as above; conditions: foliage treatment, 1,000 g active ingredient per 1 hectare, 14th day after application, greenhouse
Summary of the method: as §3

| SMILES | herbicidal effect (index), Barnyardgrass [1] | herbicidal effect (index), Slender Amaranth [2] | herbicidal effect (index), Velvetleaf [3] | herbicidal effect (index), Green Foxtail [4] | herbicidal effect, Monochoria vaginalis (Burm. f.) C. Presl [5] | herbicidal effect, Echinochloa oryzicola Vasing [6] | herbicidal effect, Scirpus juncoides Roxb. [7] | herbicidal effect, Barnyardgrass [8] | herbicidal effect, Slender Amaranth [9] | herbicidal effect, Velvetleaf [10] | herbicidal effect, Green Foxtail [11] |
| --- | --- | --- | --- | --- | --- | --- | --- | --- | --- | --- | --- |
| COc1ccc(-n2c(C(F)(F)F)ccc(C(=O)C3=C(O)CCCC3=O)c2=O)cc1F [I-109] | 5 (90% or more of herbicidal effect and crop phytotoxicity) | 5 (90% or more of herbicidal effect and crop phytotoxicity) | 5 (90% or more of herbicidal effect and crop phytotoxicity) | 5 (90% or more of herbicidal effect and crop phytotoxicity) | 5 (90% or more of herbicidal effect and crop phytotoxicity) | 4 (70 to less than 90% of herbicidal effect and crop phytotoxicity) | 5 (90% or more of herbicidal effect and crop phytotoxicity) | 5 (90% or more of herbicidal effect and crop phytotoxicity) | 5 (90% or more of herbicidal effect and crop phytotoxicity) | 5 (90% or more of herbicidal effect and crop phytotoxicity) | 4 (70 to less than 90% of herbicidal effect and crop phytotoxicity) |
| COc1ccc(-n2c(C(F)(F)F)ccc(C(=O)C3=C(O)CCCC3=O)c2=O)cc1Cl [I-110] | 5 (90% or more of herbicidal effect and crop phytotoxicity) | 5 (90% or more of herbicidal effect and crop phytotoxicity) | 5 (90% or more of herbicidal effect and crop phytotoxicity) | 4 (70 to less than 90% of herbicidal effect and crop phytotoxicity) | 5 (90% or more of herbicidal effect and crop phytotoxicity) | 5 (90% or more of herbicidal effect and crop phytotoxicity) | 5 (90% or more of herbicidal effect and crop phytotoxicity) | 5 (90% or more of herbicidal effect and crop phytotoxicity) | 5 (90% or more of herbicidal effect and crop phytotoxicity) | 4 (70 to less than 90% of herbicidal effect and crop phytotoxicity) | 3 (50 to less than 70% of herbicidal effect and crop phytotoxicity) |
| COCc1cc(-n2c(C(F)(F)F)ccc(C(=O)C3=C(O)CCCC3=O)c2=O)ccc1F [I-111] | 5 (90% or more of herbicidal effect and crop phytotoxicity) | 5 (90% or more of herbicidal effect and crop phytotoxicity) | 5 (90% or more of herbicidal effect and crop phytotoxicity) | 5 (90% or more of herbicidal effect and crop phytotoxicity) | 5 (90% or more of herbicidal effect and crop phytotoxicity) | 5 (90% or more of herbicidal effect and crop phytotoxicity) | 5 (90% or more of herbicidal effect and crop phytotoxicity) | 5 (90% or more of herbicidal effect and crop phytotoxicity) | 5 (90% or more of herbicidal effect and crop phytotoxicity) | 5 (90% or more of herbicidal effect and crop phytotoxicity) | 5 (90% or more of herbicidal effect and crop phytotoxicity) |
| O=C1CCCC(O)=C1C(=O)c1ccc(C(F)(F)F)n(Cc2ccccc2)c1=O [I-114] | 5 (90% or more of herbicidal effect and crop phytotoxicity) | 5 (90% or more of herbicidal effect and crop phytotoxicity) | 5 (90% or more of herbicidal effect and crop phytotoxicity) | 4 (70 to less than 90% of herbicidal effect and crop phytotoxicity) | 5 (90% or more of herbicidal effect and crop phytotoxicity) | 5 (90% or more of herbicidal effect and crop phytotoxicity) | 5 (90% or more of herbicidal effect and crop phytotoxicity) | 5 (90% or more of herbicidal effect and crop phytotoxicity) | 5 (90% or more of herbicidal effect and crop phytotoxicity) | 5 (90% or more of herbicidal effect and crop phytotoxicity) | 4 (70 to less than 90% of herbicidal effect and crop phytotoxicity) |
